Results on one compound are retold here after patent US20060269482A1 (priority 2005, published 2006).

Read-outs that look alike come from different tables or passages of the source.

A short description of data set [1]: Plasma and tumor exposures after a single oral dose. The class given is in vivo, rat. On the procedure:
Female Fischer rats obtained from Charles River Laboratories were used when they were ˜13-15 weeks old and weighed ˜150 grams. All animals were examined prior to the initiation of studies to ensure that they were healthy and acclimated to the laboratory environment. Autoclaved water and irradiated food were provided ad libitum, and the animals were maintained in a 12 hour light and dark cycle.
The test compound COMPOUND A, [4-amino-2-(1-methanesulfonylpiperidin-4-ylamino) pyrimidin-5-yl]-(2,3-difluoro-6-methoxyphenyl)methanone, was synthesized by Discovery Chemistry, Hoffmann-La Roche Inc. COMPOUND A was formulated as a suspension in 1% Klucel LF with 0.1% Tween 80 for oral injection. Compound was stored at 4° C. and vortexed immediately prior to administration.
(§1) The dose selected was 80 mg/kg, determined to be an efficacious dose in this animal model. Tumor growth inhibition in the MTLn3 xenograft model after 2 to 3 weeks of oral dosing at 80 mg/kg once weekly averaged 90% with 2/10 complete regressions. COMPOUND A was dosed on day 10 post implantation of cells, at which time the tumors were 100-200 mm^3 in size. In this pharmacokinetic/pharmacodynamic experiment, plasma and tumors were collected at 1, 2, 6, 24 and 72 hours post dosing of a single oral dose of COMPOUND A. Tumors were removed and immediately snap frozen in liquid nitrogen and stored at −80° C. until drug concentration analysis. Untreated and vehicle treated control groups were included in the analysis. Concentrations of COMPOUND A in plasma and tumors were determined in the same three animals per time point. Whole blood was also collected for analysis of Rb phosphorylation. Peripheral blood mononuclear cells (PBMCs) were isolated, stimulated ex vivo with mitogen and analyzed by Western blot as described below.
In a second pharmacodynamic study, plasma concentrations of COMPOUND A were similarly analyzed as described above, and Rb phosphorylation in both PBMCs and tumor xenografts treated with a single oral dose of COMPOUND A was examined.
After a single oral dose of 80 mg/kg, plasma and tumor tissues show a similar concentration time profile of COMPOUND A. Maximum concentrations in both plasma and tumor tissue were observed 1 hr post dose. The concentrations in the tumor samples taken from the same animals were approximately 50% of the plasma concentration and at 24 hrs tumor drug levels (164±28 ng/g) approximated plasma exposures at 24 hours (250±74 ng/ml) (FIG. 7). Drug levels in plasma and tumor tissue were measurable up to 24 hrs after dosing in all the animals in PD 664 (3 rats per time point). […] Overall the plasma data seem fairly predictive for tumor concentrations particularly since the extraction of drug from the tumor samples might be less than complete. No drug was detectable in the vehicle group.
Similarly in PD 675, after a single 80 mg/kg oral dose of COMPOUND A, drug was measurable in all the animals up to 6 hrs (339±88 ng/ml) and in ⅔ animals 24 hr and 48 hr after dosing. Mean plasma concentrations were steady from 1-24 hr. No drug was detectable in the vehicle group.

Data set [2] concerns Rb phosphorylation in rat PBMCs. Kind of data set: Rb phosphorylation in ex vivo PMA-stimulated rat PBMCs after a single oral dose. As to conditions: single oral dose 80 mg/kg. On the procedure:
as §1, with “Untreated and vehicle treated control groups were included in the analysis.” left out, “Whole blood was also collected for analysis of Rb phosphorylation.” left out, “below. […]” for “below.”
PBMCs were collected by transferring the cells, including attached cells and those in suspension, into 50 ml tubes. […] Samples were sonicated on ice for 30 seconds, clarified by centrifugation at 16,000×g for 10 minutes at 4° C. and protein concentrations determined using Non-Interfering Protein Assay Kit (Geno Technology Incorporated, Maplewood, Mo.). […] For Western blotting, total Rb was detected using antibody from Pharmingen (BD Bioscience, San Diego, Calif.) at a dilution of 1:2000. […]

Where [3] appears, read: single oral dose 80 mg/kg, rat, PD 664.

In the case of `COc1ccc(F)c(F)c1C(=O)c1cnc(NC2CCN(S(C)(=O)=O)CC2)nc1N` [COMPOUND A, [4-amino-2-(1-methanesulfonylpiperidin-4-ylamino)pyrimidin-5-yl]-(2,3-difluoro-6-methoxyphenyl)methanone], in data set [1] (female, Fischer, rat, plasma, single 80 mg/kg oral dose, PD 675, 6 hrs), the concentration at 6 h came out at 339 ± 88 ng/mL. For the same compound, in data set [1] (female, Fischer, rat, plasma, single oral dose 80 mg/kg, 24 hours, PD 664, read-out: Plasma exposure at 24 hours), the concentration at 24 h is 250 ± 74 ng/mL. For the same compound, the concentration at 72 h in data set [1] (female, Fischer, rat, plasma, single oral dose 80 mg/kg, PD 664, one out of three animals measurable) is ≥ 12.5 ng/mL. In data set [1] (female, Fischer, rat, tumor / plasma, single oral dose 80 mg/kg, same animals, PD 664, read-out: Tumor concentration as percent of plasma concentration), the Kp is ~0.5. Moreover, in data set [1] (female, Fischer, rat, tumor, single oral dose 80 mg/kg, 24 hrs, PD 664, read-out: Tumor drug level at 24 hrs), the concentration at 24 h came out at 164 ± 28 ng/g. The “Time up to which drug levels in plasma and tumor tissue were measurable in all animals” value in data set [1] (single oral dose 80 mg/kg, PD 664, 3 rats per time point) is on record as “up to 24 hrs”. Moreover, in data set [1] (setting [3]), the “Time of maximum concentration in plasma” value was 1 h and the “Time of maximum concentration in tumor tissue” value is 1 h. For the same compound, the “Total Rb levels in PBMCs” value in data set [2] (female Fischer rats) is “did not appear to decrease”. In addition, the “Rb phosphorylation (serine 795) in ex vivo stimulated PBMCs” value in data set [2] (female Fischer rats, 2, 6 and up to 24 hours post treatment, Western blot) is “decrease in Rb phosphorylation”.
